Tests used:
hNET = hNET (Homo sapiens (Human), UniProt P23975); experiment: NET radioligand binding assay ([3H]nisoxetine, HEK-293 membranes); conditions: (+)-enantiomers
Procedure: (§1) Recombinant HEK-293 cells expressing either the hSERT, hDAT, or hNET proteins were harvested from T-175 flasks as follows. The medium was removed from the flasks and the cells rinsed with HBSS without Ca and without Mg. The cells were then incubated for 5-10 minutes in 10 mM Tris-Cl, pH 7.5, 5 mM EDTA before the cells were lifted with a combination of pipetting and scraping, as needed. The cell suspension was collected into centrifuge bottles and homogenized for 30 seconds with a Polytron homogenizer. The suspension was centrifuged for 30 minutes at 32,000×g, 4° C. The supernatant was decanted and the pellet resuspended and homogenized in 50 mM Tris-Cl, pH 7.5, 1 mM EDTA for 10 seconds. The suspension was then centrifuged again for 30 minutes at 32,000×g, 4° C. The supernatant was decanted and the pellet resuspended in 50 mM Tris-Cl, pH 7.5, 1 mM EDTA and briefly homogenized. A Bradford assay (Bio-rad) was performed and the membrane preparation diluted to 2 mg/ml with 50 mM Tris-Cl, pH 7.5, 1 mM EDTA. Aliquots were prepared, and then frozen and stored at −80° C.
Compounds were dissolved in 100% DMSO at a concentration 100 times the desired highest assay concentration, serially diluted 1:3 in 100% DMSO, and 1.0 μl/well of each solution was dispensed to a Nunc polypropylene, round bottom, 384-well plate. 100% inhibition is defined with 1.0 μl/well of 10 mM desipramine dissolved in DMSO. 50 μl/well of a 2× membrane preparation (0.4 mg/ml in 50 mM Tris-Cl, pH 7.5, 120 mM NaCl, 5 mM KCl) and 50 μl/well of a 2× radioligand solution (4 nM [^3H]nisoxetine in 50 mM Tris-Cl, pH 7.5, 120 mM NaCl, 5 mM KCl) were added to the well and the reaction incubated for 1 hour at room temperature. The contents of the assay plate were then transferred to a Millipore MultiscreenHTS GF/B filter plate which was pretreated with 0.5% PEI for at least one hour. The plate was vacuum filtered and washed with 7 washes of 100 μl/well 50 mM Tris-Cl, pH 7.5, 120 mM NaCl, 5 mM KCl chilled to 4° C. The filtration and washing were completed in less than 90 seconds. The plates were air-dried overnight, 12 μl/well of MicroScint scintillation fluid added, and the plates counted in a Trilux.
(§2) The raw data was normalized to percent inhibition using control wells defining 0% (DMSO only) and 100% (selective inhibitor) inhibition which were run on each plate. Each plate was run in triplicate, and the concentration response curve thus generated was fit using the four-parameter dose response equation, Y=Bottom+(Top-Bottom)/(1+10^((LogIC50−X)*HillSlope)) in order to determine the IC50 value for each compound. The radioligand concentration chosen for each assay corresponds to the Kd concentration determined through saturation binding analysis for each assay.

hDAT = hDAT (Homo sapiens (Human), UniProt Q01959); experiment: DAT radioligand binding assay ([125I]RTI-55, HEK-293 membranes); conditions: (+)-enantiomers; read-out: DAT IC50
Chain of hDAT (Q01959 whole entry): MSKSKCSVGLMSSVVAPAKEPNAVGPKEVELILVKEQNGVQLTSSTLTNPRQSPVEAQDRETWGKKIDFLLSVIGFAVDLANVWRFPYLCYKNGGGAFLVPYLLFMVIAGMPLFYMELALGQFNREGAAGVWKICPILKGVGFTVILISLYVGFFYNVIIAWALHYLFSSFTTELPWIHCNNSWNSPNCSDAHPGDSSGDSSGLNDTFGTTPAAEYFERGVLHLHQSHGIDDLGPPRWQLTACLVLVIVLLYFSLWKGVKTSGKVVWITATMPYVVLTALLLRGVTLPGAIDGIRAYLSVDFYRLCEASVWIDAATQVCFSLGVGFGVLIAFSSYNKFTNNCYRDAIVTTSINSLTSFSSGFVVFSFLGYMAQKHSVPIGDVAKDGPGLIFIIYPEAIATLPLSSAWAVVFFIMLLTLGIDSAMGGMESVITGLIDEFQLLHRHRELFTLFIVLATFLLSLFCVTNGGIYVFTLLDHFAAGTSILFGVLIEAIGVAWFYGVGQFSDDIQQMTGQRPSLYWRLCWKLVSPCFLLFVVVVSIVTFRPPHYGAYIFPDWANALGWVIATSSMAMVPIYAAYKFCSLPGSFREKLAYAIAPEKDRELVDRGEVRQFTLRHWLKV
Procedure: as §1
Compounds were dissolved in 100% DMSO at a concentration 100 times the desired highest assay concentration, serially diluted 1:3 in 100% DMSO, and 0.4 μl/well of each solution was dispensed to a Nunc polypropylene, round bottom, 384-well plate. 100% inhibition is defined with 0.4 μl/well of 1 mM GBR-12935 dissolved in DMSO. 20 ul/well of a 2× membrane preparation (12.5 μg/ml in 30 mM sodium phosphate buffer, pH 7.9 at 4° C.) and 20 μl/well of a 2× radioligand solution ([…] [^125I]RTI-55 in 30 mM sodium phosphate buffer, pH 7.9 at 4° C.) were added to the well and the reaction incubated for 1 hour at room temperature. The contents of the assay plate were then transferred to a Millipore MultiscreenHTS GF/B filter plate which was pretreated with 0.5% PEI for at least one hour. The plate was vacuum-filtered and washed with 7 washes of 100 μl/well 50 mM Tris-Cl, pH 7.5, 120 mM NaCl, 5 mM KCl chilled to 4° C. The filtration and washing were completed in less than 90 seconds. The plates were air-dried overnight, 12 μl/well of MicroScint scintillation fluid added, and the plates counted in a Trilux.
as §2

NET = experiment: Occupancy assay, ex vivo binding in brain tissue, NET
Excerpt: The general procedure for brain tissue collection and transporter occupancy assessment is briefly described as follows. Mice were sacrificed by asphyxiation in CO2, rats by decapitation and dogs by IV injection of euthanasia solution. For mice and rats, after the brains were removed from the skull, the forebrain tissue (removal of the brainstem and cerebellum) was used for SERT, NET, and DAT occupancy assessment. In dogs, the striatum was dissected for DAT occupancy and the remaining forebrain tissue (without the striatum, brainstem, and cerebellum) was used for SERT and NET occupancy assessment. The brain tissues were frozen in chilled isopentane and stored at −80° C. until homogenization.
The brain tissues were thawed and then homogenized using a polytron homogenizer (Kinematica). Sample aliquots were frozen immediately and stored at −80° C. Protein content was measured for each sample using a Coomassie protein assay kit (Pierce).
On the day of ex vivo binding for occupancy assessment, frozen sample aliquots were thawed and needle homogenized, and 100 μg of the tissue was incubated for SERT, NET, and DAT binding under assay conditions summarized in Table 2. […] The filters were washed twice with ice-cold incubation buffer, punched into a clear plate prior to the addition of 200 ul scintillation fluid per well. Radioligand was measured using a Wallac Microbeta liquid scintillation counter.
The specific binding was calculated by subtracting the value of the non-specific binding from that of the total binding in each sample. The percent occupancy was calculated as (1−specific binding in drug treated/specific binding in vehicle treated)×100%. […] Nonlinear regression was performed using GraphPad Prism version 3.00 (GraphPad Software, San Diego, Calif.).

Chain of hNET (P23975 whole entry): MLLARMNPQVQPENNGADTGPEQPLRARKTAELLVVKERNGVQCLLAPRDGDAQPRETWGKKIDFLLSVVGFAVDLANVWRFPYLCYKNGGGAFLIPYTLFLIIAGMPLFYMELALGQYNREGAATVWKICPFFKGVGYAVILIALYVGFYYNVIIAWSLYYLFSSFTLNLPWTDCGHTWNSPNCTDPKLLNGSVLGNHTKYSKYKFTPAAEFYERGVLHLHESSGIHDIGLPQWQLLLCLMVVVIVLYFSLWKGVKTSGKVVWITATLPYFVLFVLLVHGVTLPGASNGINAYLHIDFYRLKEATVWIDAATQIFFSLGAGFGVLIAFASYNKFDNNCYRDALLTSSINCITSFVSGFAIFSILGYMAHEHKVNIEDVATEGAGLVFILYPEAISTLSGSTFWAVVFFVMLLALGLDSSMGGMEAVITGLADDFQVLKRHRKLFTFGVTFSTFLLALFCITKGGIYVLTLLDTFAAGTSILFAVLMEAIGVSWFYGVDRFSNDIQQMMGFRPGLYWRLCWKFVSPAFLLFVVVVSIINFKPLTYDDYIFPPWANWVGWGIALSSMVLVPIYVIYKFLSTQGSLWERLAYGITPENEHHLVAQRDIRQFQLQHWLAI

CC1(C)NCC(c2ccc(Cl)c(Cl)c2)c2ccc(-c3ccc4ncnn4c3)cc21 (stereo not drawn) [Example 40, 4-(3,4-dichlorophenyl)-7-([1,2,4]triazolo[1,5-a]pyridin-6-yl)-1,1-dimethyl-1,2,3,4-tetrahydroisoquinoline]
IC50 (hNET): 51 nM
IC50 (hDAT): 2.1 nM
NET Occupancy % (NET; dose 3 mg/kg, time point 3 h): 1%

FC(F)Oc1ccc(-c2ccc3c(c2)CNCC3c2ccc(Cl)c(Cl)c2)nn1 (stereo not drawn) [Example 12, 4-(3,4-dichlorophenyl)-7-(6-(difluoromethoxy)pyridazin-3-yl)-1,2,3,4-tetrahydroisoquinoline]
IC50 (hNET): 18.8 nM
IC50 (hDAT): 50.2 nM
NET Occupancy % (NET; dose 1 mg/kg, time point 3 h): 46%

Cc1noc(C)c1-c1ccc2c(c1)CNCC2c1ccc(Cl)c(Cl)c1 (stereo not drawn) [Example 25, 4-(4-(3,4-dichlorophenyl)-1,2,3,4-tetrahydroisoquinolin-7-yl)-3,5-dimethylisoxazole]
IC50 (hNET): 195 nM
IC50 (hDAT): 47.3 nM
NET Occupancy % (NET; dose 1 mg/kg, time point 3 h): 0%

CC1(C)NCC(c2ccc(Cl)c(Cl)c2)c2ccc(-c3ccc(N)nn3)cc21 (stereo not drawn) [Example 13, 4-(3,4-dichlorophenyl)-7-(6-aminopyridazin-3-yl)-1,1-dimethyl-1,2,3,4-tetrahydroisoquinoline]
IC50 (hNET): 97 nM
IC50 (hDAT): 2.4 nM
NET Occupancy % (NET; dose 3 mg/kg, time point 3 h): 5%

Clc1ccc(C2CNCc3cc(-c4cccnn4)ccc32)cc1Cl (stereo not drawn) [Example 33, 4-(3,4-dichlorophenyl)-7-(pyridazin-3-yl)-1,2,3,4-tetrahydroisoquinoline]
IC50 (hNET): 26.4 nM
IC50 (hDAT): 15.4 nM
NET Occupancy % (NET; dose 1 mg/kg, time point 1 h): 3%

Nc1ccc(-c2ccc3c(c2)CNCC3c2ccc(Cl)c(Cl)c2)nn1 (stereo not drawn) [Example 34, 6-(4-(3,4-dichlorophenyl)-1,2,3,4-tetrahydroisoquinolin-7-yl)pyridazin-3-amine]
IC50 (hNET): 22.9 nM
IC50 (hDAT): 7.1 nM
NET Occupancy % (NET; dose 1 mg/kg, time point 1 h): 11%

CC1(C)NCC(c2ccc(Cl)c(Cl)c2)c2ccc(-c3cccnn3)cc21 (single isomer, unassigned) [Example 9, 4-(3,4-dichlorophenyl)-1,1-dimethyl-7-(pyridazin-3-yl)-1,2,3,4-tetrahydroisoquinoline]
IC50 (hNET): 133 nM
IC50 (hDAT): 1.8 nM
NET Occupancy % (NET; dose 1 mg/kg, time point 1 h): 20%

Source: patent publication US9034899B2, “Aryl, heteroaryl, and heterocycle substituted tetrahydroisoquinolines and use thereof” (Albany Molecular Research, Inc., priority 2009, dated 2015)
